In patent publication US12383523B2, “Magnetic resonance imaging drug containing deuterated sarcosine, and diagnostic method using said drug” (LIMITED LIABILITY COMPANY “SOLVEX” (“SOLVEX” LLC), priority 2018, dated 2025):
One block for each molecule: values may come before it.

Experiments:
[1] = Solubility in water for injection; format: physicochemical; conditions: limits the dose to 10 mg in 1.0 ml
4T1 breast carcinoma = experiment: Deuterium tomography (2H MRI) of mice with 4T1 breast carcinoma after injection of the deuterated compound; conditions: 10 mg intraperitoneally in 1.0 ml water, 20 g mouse
Procedure: The deuterium tomogram was recorded using FLASH (Fast low angle shot) pulse sequence. The excitation frequency was determined from the ^2H NMR spectrum and was on the instrument used: sfo1≈46.17452 MHz, rectangular excitation pulse 2560 Hz wide and 11.2 dB power, deflection angle FA=30°, repetition time TR=11.8 ms, echo time TE=4.07 ms, scan region10 cm×10 cm, scan matrix 50×50, slice thickness 3 cm, bandwidth 12500 Hz, total scan time 9 minutes 34 seconds (1024 accumulations).
In this example, experiments were performed on Balb/c mice grafted with 4T1 breast carcinoma (injection of 5×10^5 cells/60 μI under the left forepaw 12 days before the experiment). […] In 10 minutes after the injection, the animal was immobilized with isoflurane and placed on a heated bed in a tomograph.
An animal weighing 20 g was injected intraperitoneally with a solution:

[2] = up to the replacement of 10-30% of water in the body; cited from earlier work
[3] = freely diffusing deuterated compound
From the text: In this case, the pharmacokinetics in a non-obvious way depends on a dose used (in particular, an excess of the renal reabsorption capacity for a particular compound can lead to its accelerated excretion). At that, the dose is limited by the toxicity and solubility of this compound.

[4] = From the text: An important property of the deuterated component (sarcosine) of the diagnostic drug of the invention is sufficient resistance to metabolic exchange of deuterium for protium in vivo. This exchange lowers the concentration of the deuterium label, while simultaneously increasing the background signal of heavy water (DOH), which is evenly distributed throughout the body due to rapid diffusion. This process leads to a decrease in the contrast of the image, and also prevents quantitive evaluation of deuterated component concentration by comparison with the intensity of natural DOH signal.
[5] = high doses, prior art; cited from earlier work

solubility [1]: low solubility
accumulation in tumor tissue (4T1 breast carcinoma): do not accumulate in tumor tissue
accumulation selectivity in various organs (4T1 breast carcinoma): do not show accumulation selectivity
SMILES: [2H]c1c([2H])c([2H])c(C([2H])([2H])[C@H](N)C(=O)O)c([2H])c1[2H] [L-phenylalanine-β, β, 2,3,4,5,6-d7]

SMILES: [2H]O [DOH]
toxicity [2]: non-toxic in very high doses

SMILES: [2H]O[2H] [D2O]
selective accumulation in various organs and tissues of a subject [3]: do not show selective accumulation

SMILES: [2H]C([2H])(N)C(=O)O [glycine-2,2-d2]
loss of deuterium in vivo (exchange of deuterium for protium) [4]: lose deuterium in vivovery quickly

loss of deuterium in vivo (exchange of deuterium for protium) [4]: lose deuterium in vivovery quickly
SMILES: [2H]C([2H])([2H])[C@H](N)C(=O)O [L-alanine-3,3,3-d3]

SMILES: CNCC(=O)O [sarcosine]
LD50 [5]: > 5000 mg/kg
